# From patent publication US20070185078A1, “Substituted triazole derivatives as oxytocin antagonists” (priority 2004, published 2007)
# Molecular target: T1, Oxytocin Receptor (CHO-OTR/NFAT-β-Lactamase cells) (Homo sapiens, UniProt P30559)
# T1 construct: expressed in transfected cells; host or cells: CHO (CHO-OTR cell line further transfected with the NFAT-β-lactamase reporter)
# T1 sequence (P30559 1-389): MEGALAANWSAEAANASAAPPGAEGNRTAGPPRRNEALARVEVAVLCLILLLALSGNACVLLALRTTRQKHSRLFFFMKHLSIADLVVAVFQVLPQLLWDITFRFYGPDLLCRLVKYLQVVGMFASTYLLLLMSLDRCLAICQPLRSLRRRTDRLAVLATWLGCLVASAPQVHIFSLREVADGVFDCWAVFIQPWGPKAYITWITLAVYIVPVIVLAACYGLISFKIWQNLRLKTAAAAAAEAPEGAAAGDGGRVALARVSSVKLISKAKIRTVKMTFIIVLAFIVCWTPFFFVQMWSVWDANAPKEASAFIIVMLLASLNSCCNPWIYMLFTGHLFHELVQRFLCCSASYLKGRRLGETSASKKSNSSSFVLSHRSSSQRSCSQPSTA
# Assay: Oxytocin Receptor Beta-Lactamase Assay
# Assay type: cell-based
# Conditions: oxytocin stimulation 4 hours, read-out: oxytocin antagonist activity, expressed as a Ki value
# Procedure: A suitable assay for determining the oxytocin antagonist activity of a compound is detailed herein below.
# Oxytocin Receptor Beta-Lactamase Assay
# Cells used are CHO-OTR/NFAT-β-Lactamase. The NFAT-β-lactamase expression construct was transfected into the CHO-OTR cell line and clonal populations were isolated via fluorescence activated cell sorting (FACS). An appropriate clone was selected to develop the assay. […]
# Cells grown at 80-90% confluence were harvested and counted. […]
# Preparation of 1 ml of 6× Loading Buffer with Enhanced Loading Protocol (this requires scale-up according to number of plates to be screened) • 12 μl of solution A (1 mM CCF4-AM in Dry DMSO) was added to 60 μl of solution B (100 mg/ml Pluronic-F127 in DMSO+0.1% Acetic Acid) and vortexed. • The resulting solution was added to 925 μl of solution C (24% w/w PEG400, 18% TR40 v/v in water). • 75 μl of solution D was added (200 mM probenecid in 200 mM NaOH). • 10 μl of 6× Loading Buffer was added to all wells and incubated for 1.5 hrs-2 hrs at room temperature in the dark. • The plates were read using an LJL Analyst, Excitation 405 nm, Emission 450 nm and 530 nm, gain optimal, lagtime 0.40 μs integration, 4 flashes, bottom reading.
smiles,measurement,value
COC(=O)N1Cc2nc(OC)ccc2-n2c(nnc2-c2ccc(-c3ccccc3OC)cc2)C1 [Example 8],Ki,3 nM
